Laboratory results from the Kinase Knowledgebase extract (Sharma et al. 2016).

target: MAPK14 (human) (UniProt Q16539); test: Inhibition of MAPK14 Kinase Activity
Sequence (Q16539 whole entry, looked up): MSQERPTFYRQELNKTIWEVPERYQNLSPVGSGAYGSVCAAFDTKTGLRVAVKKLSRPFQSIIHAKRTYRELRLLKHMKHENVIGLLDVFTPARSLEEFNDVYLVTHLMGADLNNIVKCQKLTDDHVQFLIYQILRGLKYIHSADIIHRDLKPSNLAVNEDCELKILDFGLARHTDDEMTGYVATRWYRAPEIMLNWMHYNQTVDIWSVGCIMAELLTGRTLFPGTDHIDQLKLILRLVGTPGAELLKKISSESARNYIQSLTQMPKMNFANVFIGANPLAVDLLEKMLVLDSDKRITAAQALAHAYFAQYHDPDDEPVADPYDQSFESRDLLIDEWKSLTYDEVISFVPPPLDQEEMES

Row | Structure (SMILES) | Ki | IC50
1 | CONC(=O)c1ccc(C)c(Nc2nc(N)nc(N(C)CC(C)(C)C)c2C#N)c1 | 0.05 nM | –
2 | CONC(=O)c1ccc(C)c(Nc2ncnc(N(C)CC(C)(C)C)c2C#N)c1 | 0.15 nM | –
3 | Cc1ccc(C(=O)Nc2ccon2)cc1Nc1nc(N)nc(NC2CCCC2)c1C#N | 0.16 nM | –
4 | Cc1ccc(C(=O)Nc2ccon2)cc1Nc1ncnc(NC(C)C)c1C#N | 0.41 nM | –
5 | Cc1ccc(C(=O)Nc2ccon2)cc1Nc1nc(N)nc(NC(C)C)c1C#N | 0.057 nM | –
6 | CCn1nccc1NC(=O)c1ccc(C)c(Nc2nc(N)nc(NC3CCCC3)c2C#N)c1 | 1.9 nM | 1.9 nM
7 | CONC(=O)c1ccc(C)c(Nc2nc(N3CCCN(C)CC3)nc(N(C)CC(C)(C)C)c2C#N)c1 | 0.057 nM | –
8 | CCCNc1ncnc(Nc2cc(C(=O)NOC)ccc2C)c1C#N | 0.97 nM | –
9 | CNc1nc(Nc2cc(C(=O)NOC)ccc2C)c(C#N)c(N(C)CC(C)(C)C)n1 | 0.047 nM | –
10 | CNc1ncnc(Nc2cc(C(=O)NOC)ccc2C)c1C#N | 16 nM | –
11 | CONC(=O)c1ccc(C)c(Nc2ncnc(NC(C)C)c2C#N)c1 | 0.61 nM | –
12 | CCn1nccc1NC(=O)c1ccc(C)c(Nc2ncnc(NC3CCCC3)c2C#N)c1 | 14 nM | –
13 | CCn1nccc1NC(=O)c1ccc(C)c(Nc2ncnc(NC(C)C)c2C#N)c1 | 15 nM | –
14 | CCn1nccc1NC(=O)c1ccc(C)c(Nc2nc(N)nc(NC(C)C)c2C#N)c1 | 1.5 nM | 1.5 nM
15 | Cc1ccc(C(=O)Nc2ccon2)cc1Nc1ncnc(NC2CCCC2)c1C#N | 1.6 nM | –
